According to US8541607B2, “Disulfide, sulfide, sulfoxide, and sulfone derivatives of cyclic sugars and uses thereof” (Lacer, S.A., priority 2003, dated 2013):

Legend:
[1] = system: platelet adhesion to HUVEC activated by LDLmm; test: Inhibition of platelet adhesion to HUVEC activated by LDLmm; assay type: cell-based, human; conditions: HUVEC activated by LDLmm (50 μg/ml); mean ± s.e.m.
Description: The methods used in the assays to determine the effect of the compounds on platelet and monocyte adhesion to human endothelial cells are substantially the same as described in the following references: • Del Maschio A. et al., J Cell Biol 1996; 135: 497-510 • Bombeli T. et al., Blood 1999; 93: 3831-3838 • Colomé C. et al; Atherosclerosis 2000; 149: 295-302; and • Martin-Satue M. at al; British Journal of Cancer 1999; 80; 1169-1174
The adhesion of the U937-monocyte cells to confluent human microvasculature endothelial cells (HMEC-1) activated by means of TNF-α (50 ng/ml) and the platelets to human umbilical endothelial cells (HUVEC) were the methods used to determine the inhibitory effect of compounds on cellular adhesion. The adhesion of monocytes previously labeled with calcein-2M (Molecular Probes) to HMEC-1 activated by TNF-α, was assessed by determination of the associated-cell fluorescence. The adhesion of washed human platelets previously labeled with MoAb against CD36-FITC to activated-HUVEC (50 μg/ml of LDL minimally modified, LDLmm) was determined by Laser Scanning Cytometry (LSC, Olympus) determining the associated-cell fluorescence. Results are expressed as the percentage of inhibition respect to control (adhesion of the cells in the absence of compounds).

[2] = system: New Zealand White rabbits fed 1% cholesterol diet; test: Atherogenesis in rabbits fed on high cholesterol diet; assay type: in vivo, rabbit
Description: The method used is substantially the same as described in Shore B, Shore V., In: Day CE (ed) Atherosclerosis Drug Discovery, Plenum Press, New York and London, pp 123-141, 1976.
Twenty-one male New Zealand White rabbits (10 weeks old at the beginning of the protocol) were maintained under standardized conditions (22° C., 40% to 60% humidity) with regular day/night cycle and free access to water. The animals were randomly assigned to 1 of 3 groups. Group 1 (n=5) received standard maintenance diet for 75 days; group 2 (n=16) received the same diet but supplemented with 1% (wt/wt) cholesterol for 45 days. At the end of this period, group 2 was classified into two randomly groups. The treated-group (n=9) receiving for additional 30 days 1.9 mg/kg/day of compound 12 (maintaining the 1% cholesterol in its diet), and the non-treated group (n=[…]) receiving a diet with a 1% of cholesterol for additional 30 days.
Study variables included triglycerides and total cholesterol. Animals were euthanized on day 75 after the start of the protocol with pentobarbital i.v. The entire aorta was removed 1 or 2 cm into the iliac arteries and fixed in buffer phosphate 0.1 M (pH 7.4) with glutaraldehyde (4%). Macroscopic and microscopic analyses of the samples were performed in a blinded fashion. Aortas were dissected and stained with Red Oil. Adventitial fat was removed, and aortas were opened longitudinally, immersed in Red Oil solution for overnight, washed in propylenglycol and fixed onto a flat surface. Images of the aortas were taken with a standard camera. Subsequently, 3 sections were taken from the aortic arch area, the thoracic aorta, and at the abdominal aorta (renal orifices). Sections were paraffin-embedded, were cut with a microtome Ultracut (Spain) and stained conventionally with hematosiline eosin. Images of aortas stained with Red Oil and hematosiline eosin were taken with a standard camera. Images were imported into Photoshop (Adobe) with a AGFA slide scanner. By means of the procedure previously described by Lillie RD (Lillie, R. D., 1994, Stain Technology, vol. 19, pp 55) the surface of injury in all the aorta and the thickness of the intima in histological samples was determined. The surface or area of the atherosclerotic injury (evaluated from the stained aortas with the Red Oil) are determined by the number of pixels of the image turned to mm^2. The intima thickness of the arteria (evaluated from the stained histological samples with Haematosiline-Eosin) was quantified in mm in a similar way to that described the surface or area of the atherosclerotic injury. For it, the sections that contained injuries of fatty striae were selected and the thickness of the intima was determined (from the arterial media to endothelium). The mean thickness of the lesion area was assessed in representative sections per aortic quadrant, and the statistical mean was calculated.

[3] = system: Rats, left carotid artery thrombosis (FeCl3); test: In vivo synergistic antithrombotic effect, FeCl3 carotid artery thrombosis, single drugs and combinations; parameters: species or system rat; conditions: Compound 12 22.3 mg/Kg, oral, acute the day of study
Description: The method used is substantially the same as described by Kurz (Kurz K. D., at al., Thromb. Res. 1990, 60: 269-280) and modified by Feuerstein (Feuerstein G. Z., et al., Artherioscler, Thromb. Vasc. Biol. 1999, 19: 2554-25562). […]
Forty-five minutes after dosing administration, rats were anaesthetized with sodium pentobarbital (40 mg/kg, i.p.) and they were placed later dorsally on a heated (37° C.) surgical board.
The left carotid artery was isolated and a Parafilm M sheet (7×20 mm, American National Can) was placed under it. An electromagnetic sounding of flow (Transonic Systems Inc.) was placed on the artery to measure blood flow.
Sixty minutes after product administration, a paper patch saturated with FeCl3 solution (70%) was placed (and not removed for the whole duration of the experiment) on the left carotid artery downstream from the sounding of flow to initiate thrombosis. The blood flow was controlled during the 60 min later to the application of the patch in the artery.
The vessel was considered totally occluded by the thrombus formed when no blood flow was detected (0.0 ml/min). In this model, occlusive thrombus formation usually takes place within 15 to 20 minutes in non-treated animals.
The fractional product concept was used to identify synergy between the compounds. In accordance with this concept, if we consider the full protection of the animal as:
[formula] where A is the rate of animals with thrombotic occlusion in treated group; and B is the rate of animals with thrombotic occlusion in the control group.
For two drugs that act of independent way:
[formula] where A1 is the rate of animals with thrombotic occlusion in the treatment group A1; A2 is the rate of animals with thrombotic occlusion in the treatment group A2; and B is the rate of animals with thrombotic occlusion in the control group
If the protection obtained with the combination of the drugs is higher than the fractional inhibition for two compounds acting independently then synergism is considered to occur.
The results are shown in table 14 and are expressed as rate of animals with thrombotic occlusion in each group.

[4] = 1.9 mg/kg/day for 30 days, 1% cholesterol diet, end, mean ± s.e.m.
[5] = treated group, basal, mean ± s.e.m.

In the case of CC(=O)S[C@H]1CO[C@H]2[C@@H]1OC[C@H]2O[N+](=O)[O-] [(12), 2-acetylthio-isosorbide-5-mononitrate], the “% of inhibition to control, platelet adhesion” value [1] is reported as 87.5% ± 5.1%, the “Plasmatic Total cholesterol, End” value [2, 4] is reported as 1461 ± 147 mg/dL and the “Plasmatic Triglycerides, End” value [2, 4] is reported as 347 ± 82 mg/dL. For the same molecule, the “influence upon lipid metabolism (plasma lipids vs control)” value ([2]; 1.9 mg/kg/day for 30 days, in words) was “did not influence upon lipid metabolism”, the “Plasmatic Total cholesterol, Basal” value [2, 5] was 33.3 ± 4.1 mg/dL and the “Plasmatic Triglycerides, Basal” value [2, 5] was 121 ± 34 mg/dL. The “% of animals protected” value [3] was “(50%)” and the “Rate of animals with thrombotic occlusion” value ([3]; control 1) was 0.5.
